Test results: ChEMBL document CHEMBL1142505, “Synthesis and antitubercular activity of ferrocenyl diaminoalcohols and diamines” (2008)
Values after ≈ are worked out from the molar mass of the structure shown.

Test system: Mycobacterium tuberculosis
Test: Antitubercular activity against Mycobacterium tuberculosis H37Rv after 2 days by mycobacteria growth indicator tube system
Format: functional
Details: 48 h

SMILES | MIC [µg/mL]
c1ccc(CNCCNCc2ccccc2)cc1 | > 64
CC(CNCc1ccccc1)NCc1ccccc1 (stereo not drawn) | > 64
CC[C@@H](CO)NCCN[C@@H](CC)CO [ETHAMBUTOL] | 2 (≈ 9.79 µM)
